The target of assay [1] is SpADH2 WT (Sphingobium sp. SYK-6, UniProt G2IIZ8). Kind of assay: Substrate kinetic assay, WT. Format: biochemical. The method, then:
(§1) Specific activity of SpADH2 in substrate spectrum study was measured spectrophotometrically. PBS (pH 7.5) buffer was pre-heated at 30°C for 15 min. For NAD^+, 0.05 µg SpADH2 was added to the PBS buffer (100 µL), and a final concentration of 2 mM NAD^+ was added. For tsNCBs cofactor p-BANA^+, 5 µg SpADH2 and a final concentration of 7.5 mM p-BANA^+ was added. The mixture was carried out in a 96-well microplate, and a final concentration of 5 mM substrate was added to start the reaction. The microplate was incubated in 30°C for 1 h. Florescent probes (2-[2-(1,4-dihydro-1-methyl-3-quinolinyl)ethenyl]-1,3,3-trimethyl-3H-indolium) in a final concentration of 0.2 mM (100 µL) was added (Scheme S1), and the microplate was placed in a microplate reader immediately for measurement under 537 nm (Fomin et al. [2016]).
(§2) Kinetic analysis of SpADH2 and its variants were carried out following Michaelis-Menten equation or Michaelis-Menten excess substrate inhibition equation. For of the substrate kinetic assays, concentrations of cofactors were fixed at 5 mM for NAD^+ and 7.5 mM for p-BANA^+. For cofactor kinetic assays, the concentration of 1a was fixed at 5 mM.
(§3) Specific activity was determined spectrophotometrically as above except that gradient 1a (0−20 mM) or cofactor (0−35 mM) concentrations were applied.
(§4) Cofactor specificity ratio (CSR) represents the ratio of catalytic efficiency of p-BANA^+ to NAD^+ for each enzyme, and relative specificity (RS) stands for the CSR ratio of variants to WT (King et al. [2020]).

For assay [2], the system named is SpADH2 variant H43L/A290I. The experiment in a line: Cofactor kinetic assay, H43L/A290I. Format: biochemical, Sphingobium sp. SYK-6. Here is the method: as §1, §2, §3, §4
Assay [3] has as its system SpADH2. Kind of assay: Preliminary evaluation of NCB usage in oxidation of syringyl alcohol (HPLC). Type of assay: biochemical, Sphingobium sp. SYK-6. The settings on record: preliminary assay: 1a 1 mM, NCB 10 mM, pH 7.0, 30℃, 0.1 mg/mL enzyme, 1 h. The method, then:
Sphingobium sp. SYK-6 belongs to genus Sphingomonas, and a search in UniProtKB identified 19 ADHs from this strain, including 5 PQQ-dependent and the remaining NAD^+/NADP^+-dependent enzymes. Two sequences annotated as aryl-alcohol dehydrogenases (SLG_34580 and SLG_24930) (Table. S1) were selected for heterologous expression (Fig. S1) and named SpADH1 and SpADH2, respectively. Their ability to utilize NCBs was assessed by oxidation of syringyl alcohol (1a) to produce syringaldehyde (1b) (Fig. 1a).
Fig. 1 (a) Reaction scheme of SpADH2-catalyzed oxidation of syringyl alcohol. (b) Specific activity of SpADH2 toward four NCBs. The evaluation of NCBs usage by SpADH2 was carried out under following conditions: 50 mM PBS buffer (pH 7.0) and 30℃, with 1a (1 mM) as substrate and 4 typical NCBs (10 mM) as cofactor. A total of 0.1 mg/mL enzyme was added to a 200 µL reaction mixture, and was analyzed by HPLC after 1 h reaction
Reaction samples were analyzed using Agilent 1260 Infinity II LC system under reversed phase condition. Column: Agilent C18 column. Analytical conditions for 1a and 1b: mobile phase: 50% water: 50% acetonitrile. The retention time for standard product 1b was 3.27 min, under flow rate of 1 mL·min^− 1and temperature of 30°C (Fig. S4).

In assay [4] the test system is SpADH2 variant A290I. Kind of assay: Substrate kinetic assay, A290I. Format: biochemical, Sphingobium sp. SYK-6. The method, then:
as §1, §2, §3, §4

The subject of assay [5] is SpADH2 variant A47L. The experiment in a line: Activity of variant in oxidation of syringyl alcohol with p-BANA^+ (Fig. 5), A47L. Format: biochemical, Sphingobium sp. SYK-6. Particulars: cofactor p-BANA^+, substrate syringyl alcohol. The method, then: In the first round of screening, saturation mutagenesis was constructed for six positions (W114, T177, G172, G316, A47, and R227). […] Therefore, in the second round of mutagenesis, six additional sites within the 5 Å range of the cofactor ribose (H43, V202, T265, V288, G289, and A290) were selected for saturation mutagenesis screening (Fig. 6c and Fig. S6). Three beneficial mutations were identified. […] Subsequently, combinatorial mutagenesis was performed, resulting in 11 double variants and 3 triple variants.
Fig. 5 Relative activity of SpADH2 and its variants in oxidation of syringyl alcohol when utilizing p-BANA^+ as cofactor
In preliminary screening by spectrophotometric analysis, PBS (pH 7.5) buffer (50 µL) in a 96-well plate was pre-warmed at 30°C for 15 min, and a final concentration of 5 mM p-BANA^+ and 1 mM substrate syringyl alcohol were added, and 50 µL of crude enzyme were add to each well to start the reaction, with WT as control. The reaction mixture was incubated at 30°C for 1 h, followed by addition of fluorescent probes in a final concentration of 0.2 mM, and was subjected to determination under 537 nm as described above.

In assay [6] the test system is SpADH2 variant A290I. Kind of assay: Cofactor spectrum (HPLC specific activity), variant A290I. Type of assay: biochemical, Sphingobium sp. SYK-6. The settings on record: 1a 5 mM, cofactor 7.5 mM, pH 7.5, 30℃, 5 µg enzyme, 1 h. The method, then:
Fig. 8 Cofactor spectrums of SpADH2 and its variants. The darkness of color for each cofactor stands for the activity. For each cofactor cube, top left: WT, top right: H43L, bottom left: A290I, bottom right: H43L/A290I. (a) Natural cofactors and NMN^+ are shown in purple. (b) tsNCBs are shown in cyan. The evaluation of cofactor spectrum was carried out under following conditions: 50 mM PBS buffer (pH 7.5) and 30℃, with 1a (5 mM) as substrate and different cofactors (7.5 mM) as cofactor. For NAD(P)^+ and NMN^+, 0.05 µg enzyme was added, and for tsNCBs, 5 µg enzyme was added. The results were analyzed by HPLC after 1 h reaction
Specific activity of SpADH2 in cofactor spectrum study was determined by HPLC analysis. PBS (pH 7.5) buffer was pre-heated at 30°C for 15 min. For NAD(P)^+ and NMN^+, 0.05 µg SpADH2 was added to PBS buffer (100 µL). For tsNCBs, 5 µg SpADH2 was added. A final concentration of 7.5 mM cofactor was added to the reaction mixture. Finally, a final concentration of 5 mM substrate was added to start the reaction. The reactions were conducted at 30°C.
One unit of enzyme activity is defined as the amount of enzyme required to form 1 µmol 1b per minute at pH 7.5 and 30°C. Same reaction without cofactor was used as a blank control.

The mark [7] stands for this setting: 1a varied, cofactor (= label) fixed: 5 mM NAD^+ or 7.5 mM p-BANA^+.

SpADH2 WT, sequence (G2IIZ8 1-372): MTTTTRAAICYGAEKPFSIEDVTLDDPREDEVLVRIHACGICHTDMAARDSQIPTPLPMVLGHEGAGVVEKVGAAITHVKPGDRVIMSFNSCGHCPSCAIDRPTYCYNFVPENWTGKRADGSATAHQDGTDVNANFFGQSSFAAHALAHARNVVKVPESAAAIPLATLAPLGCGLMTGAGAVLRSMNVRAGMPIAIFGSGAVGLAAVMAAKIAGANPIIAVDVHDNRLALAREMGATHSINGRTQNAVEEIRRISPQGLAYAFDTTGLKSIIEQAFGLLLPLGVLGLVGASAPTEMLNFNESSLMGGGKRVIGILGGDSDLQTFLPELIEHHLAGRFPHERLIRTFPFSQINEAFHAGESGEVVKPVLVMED

In general, Km refers to the substrate concentration at which the rate is half of its maximum. As usually defined, the Ki is a dissociation constant, usually derived from enzyme kinetics or from competition with a known ligand. As for `NC(=O)c1ccc[n+](Cc2ccc(C(=O)O)cc2)c1` [p-BANA^+, para-3-carbamoyl-1-(4-carboxybenzyl)pyridin-1-ium], the kcat is on record as 1.1 ± 0.3 min^− 1 in assay [1] (setting [7]); 8.7 ± 1.3 min^− 1 in assay [2] (cofactor (= label) varied, 1a fixed at 5 mM); 11 ± 4.1 min^− 1 in assay [4] (setting [7]). Besides, the “Cofactor specificity ratio (catalytic efficiency of p-BANA^+ to NAD^+)” value is recorded as 1.52×10^-5 in assay [1] (substrate kinetics), 1.94×10^-2 in assay [2] (cofactor kinetics) and 2.95×10^-4 in assay [4] (substrate kinetics). In assay [2] (cofactor (= label) varied, 1a fixed at 5 mM, pH 7.5, 30°C), the Km is 13 ± 2.7 mM. Moreover, in assay [2] (cofactor (= label) varied, 1a fixed at 5 mM, read-out: Ki (cofactor inhibition)), the Ki came to 15 ± 3.5 mM. Moreover, the “Relative specificity (CSR ratio of variant to WT)” value amounted to 509 in assay [2] (cofactor kinetics) and 19.4 in assay [4] (substrate kinetics). Also, the “catalytic activity of SpADH2 with the NCB as cofactor” value in assay [3] amounted to 1.62 U/g. Also, the “fold increase in kcat vs WT” value in assay [4] (substrate kinetics, cofactor = label) is reported as 10 fold. For the same compound, in assay [5], the “fold higher activity than WT” value is 4.3 fold. In assay [6], the “catalytic activity with the tsNCB as cofactor” value was found to be 160.82 U/g.

(Values after publication PMC12052742, “Engineering a newly identified alcohol dehydrogenase from Sphingobium Sp. for efficient utilization of nicotinamide cofactors biomimetics” (Bioresources and Bioprocessing, 2025).)
